From patent US7713987B2, “Pyrimidine-2,4-diamines and their uses” (Rigel Pharmaceuticals, Inc., priority 2005, dated 2010)

Assays:
[1] = Metabolic stability of prodrugs in human hepatic microsomes; type: in vitro ADME; settings: in the presence of NADPH, second value of cell, read-out: T1/2 (half-life of prodrug)
Experimental: (§1) Selected compounds were incubated in rat and human hepatic microsomes (with and without NADPH) and analyzed by LC/MS/MS for both the prodrug and pyrimidine-2,4-diamine.
(§2) Studies were conducted in microsomes to determine whether the prodrug moieties could be hydrolyzed by CYP450 enzymes.

[2] = Metabolic stability of prodrugs in rat hepatic microsomes; type: in vitro ADME; settings: in the presence of NADPH, first value of cell, read-out: T1/2 (half-life of prodrug)
Experimental: as §1, §2

[3] = Pharmacokinetics of the compounds in sprague-dawley rats (oral and IV bolus, plasma LC/MS/MS); type: in vivo
Experimental: Compounds were administered to rats orally at a dose of 4-5 mg/kg using PEG-400 as a vehicle. Selected compounds were also administered as an IV bolus at a dose of 1 mg/kg. Plasma samples were obtained from either the portal or jugular veins and analyzed by LC/MS/MS for both the parent pyrimidine-2,4-diamine and the prodrug compounds synthesized in the examples above. Bioavailability was calculated using the AUC of pyrimidine-2,4-diamine in jugular vein samples and the AUC of an IV bolus dose of pyrimidine-2,4-diamine. For selected compounds, portal vein samples were evaluated for both prodrug and pyrimidine-2,4-diamine and the information was used to determine the percent absorption of the orally administered dose.

| SMILES | half-life [1] [min] | half-life [2] [min] | % of prodrug absorbed ([3]; AUC of prodrug in portal vein after oral dose vs AUC in jugular vein after IV dose, dose-corrected) [%] | clearance ([3]; Sprague-Dawley, rat, plasma, IV bolus 1 mg/kg, read-out: Clearance rate of prodrug) [mL/min/kg] |
| --- | --- | --- | --- | --- |
| COc1cc(N(C(=O)OCC2CCCCN2C)c2ncc(F)c(Nc3ccc4c(n3)NC(=O)C(C)(C)O4)n2)cc(OC)c1OC (centres unmarked) [Example 3] | < 5 | < 5 |  |  |
| COc1cc(N(C(=O)OCCN2CCOCC2)c2ncc(F)c(Nc3ccc4c(n3)NC(=O)C(C)(C)O4)n2)cc(OC)c1OC [Example 2, N4-(2,2-Dimethyl-3-oxo-4H-5-pyrido[1,4]oxazin-6-yl)-5-fluoro-N2-[[2-(morpholin-4-yl)ethoxy]carbonyl]-N2-(3,4,5-trimethoxyphenyl)-2,4-pyrimidinediamine] | < 5 | < 5 | 20 | 72 |
| COc1cc(N(C(=O)N[C@H](C(=O)OC(C)(C)C)C(C)C)c2ncc(F)c(Nc3ccc4c(n3)NC(=O)C(C)(C)O4)n2)cc(OC)c1OC [Example 8, 1S—N2-[[-1-(t-Butoxycarbonyl)-2-methylpropyl]aminocarbonyl]-N4-(2,2-dimethyl-3-oxo-4H-5-pyrido[1,4]oxazin-6-yl)-5-fluoro-N2-(3,4,5-trimethoxyphenyl)-2,4-pyrimidinediamine] | 10 | 35 |  |  |
